Test results taken from PubChem BioAssay (NCI).
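Results reflect a 48-hour exposure of cells in 96-well plates to compound at five concentrations. TGI marks complete inhibition of growth.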

What was measured:
Test in all cases: NCI-60 cell line screen, 48 h
[1] = test system: M14 melanoma
[2] = test system: OVCAR-3 ovarian
[3] = test system: SNB-75 CNS
[4] = test system: M19-MEL melanoma
[5] = test system: SF-295 CNS
[6] = test system: OVCAR-4 ovarian
[7] = test system: MOLT-4 leukemia
[8] = test system: KM12 colon
[9] = test system: UACC-62 melanoma
[10] = test system: HL-60(TB) leukemia
[11] = test system: NCI-H460 lung
[12] = test system: UO-31 renal
[13] = test system: OVCAR-8 ovarian
[14] = test system: HCT-116 colon
[15] = test system: SK-MEL-2 melanoma
[16] = test system: LOX IMVI melanoma
[17] = test system: NCI-H23 lung
[18] = test system: XF 498 CNS
[19] = test system: IGROV1 ovarian
[20] = test system: DLD-1 colon
[21] = test system: U251 CNS
[22] = test system: HOP-18 NSCLC
[23] = test system: SK-MEL-28 melanoma
[24] = test system: HOP-92 NSCLC
[25] = test system: OVCAR-5 ovarian
[26] = test system: CAKI-1 renal
[27] = test system: SR leukemia
[28] = test system: A498 renal
[29] = test system: EKVX NSCLC
[30] = test system: SNB-78 CNS
[31] = test system: NCI-H226 lung
[32] = test system: 786-0 renal
[33] = test system: RPMI-8226 leukemia
[34] = test system: HT29 colon
[35] = test system: SF-539 CNS
[36] = test system: SNB-19 CNS
[37] = test system: SW-620 colon
[38] = test system: RXF 393 renal
[39] = test system: CCRF-CEM leukemia
[40] = test system: HCC-2998 colon
[41] = test system: SK-OV-3 ovarian
[42] = test system: ACHN renal
[43] = test system: SN12C renal
[44] = test system: SK-MEL-5 melanoma
[45] = test system: HCT-15 colon
[46] = test system: K-562 leukemia
[47] = test system: LXFL 529 NSCLC
[48] = test system: MALME-3M melanoma
[49] = test system: A549 NSCLC
[50] = test system: DMS 273 small cell lung
[51] = test system: COLO 205 colon
[52] = test system: TK-10 renal
[53] = test system: UACC-257 melanoma
[54] = test system: HOP-62 NSCLC
[55] = test system: KM20L2 colon
[56] = test system: MDA-MB-231 breast
[57] = test system: MCF7 breast
[58] = test system: SF-268 CNS
[59] = test system: T-47D breast
[60] = test system: NCI/ADR-RES ovarian
[61] = test system: MDA-N
[62] = test system: BT-549 breast
[63] = test system: NCI-H522 lung
[64] = test system: DU-145 prostate
[65] = test system: MDA-MB-435
[66] = test system: HS 578T breast
[67] = test system: PC-3 prostate

## O=C(Nc1ccccc1)OCc1nc2c([nH]1)C(=O)C=CC2=O
[1]
  TGI: 29.8 µM
[2]
  TGI: 30.8 µM
[3]
  TGI: 37.1 µM
[4]
  TGI: 29.5 µM
[5]
  TGI: 33.1 µM
[6]
  TGI: 28 µM
[7]
  TGI: 6.71 µM
[8]
  TGI: 29 µM
[9]
  TGI: 36.9 µM
[10]
  TGI: 15.2 µM
[11]
  TGI: 36.8 µM
[12]
  TGI: 30.5 µM
[13]
  TGI: 34 µM
[14]
  TGI: 28.4 µM
[15]
  TGI: 34.2 µM
[16]
  TGI: 30.9 µM
[17]
  TGI: 40 µM
[18]
  TGI: 30.9 µM
[19]
  TGI: 30.7 µM
[20]
  TGI: > 100 µM
[21]
  TGI: 25.5 µM
[22]
  TGI: 23 µM
[23]
  TGI: 30.5 µM
[24]
  TGI: 45.1 µM
[25]
  TGI: 36.8 µM
[26]
  TGI: 13.4 µM
[27]
  TGI: 51.7 µM
[28]
  TGI: 30.1 µM
[29]
  TGI: 41 µM
[30]
  TGI: 45.3 µM
[31]
  TGI: 33.3 µM
[32]
  TGI: 32.5 µM
[33]
  TGI: 51.1 µM
[34]
  TGI: 58.5 µM
[35]
  TGI: > 100 µM
[36]
  TGI: 28.5 µM
[37]
  TGI: 8.79 µM
[38]
  TGI: 23 µM
[39]
  TGI: 13.1 µM
[40]
  TGI: 30.1 µM
[41]
  TGI: 29.3 µM
[42]
  TGI: 25.2 µM
[43]
  TGI: 36.3 µM
[44]
  TGI: 27.3 µM
[45]
  TGI: 38 µM
[46]
  TGI: 7.36 µM
[47]
  TGI: 11.1 µM
[48]
  TGI: 18.3 µM
[49]
  TGI: 31.9 µM
[50]
  TGI: 42 µM
[51]
  TGI: 3.94 µM
[52]
  TGI: 27 µM
[53]
  TGI: 13.7 µM
[54]
  TGI: > 100 µM
[55]
  TGI: 41 µM

## C/C=C/COc1cc(NC(=S)c2ccoc2C)ccc1OC
[1]
  TGI: > 100 µM
[2]
  TGI: > 100 µM
[3]
  TGI: > 100 µM
[5]
  TGI: > 100 µM
[6]
  TGI: > 100 µM
[7]
  TGI: > 100 µM
[8]
  TGI: > 100 µM
[9]
  TGI: > 100 µM
[10]
  TGI: > 100 µM
[56]
  TGI: > 100 µM
[12]
  TGI: > 100 µM
[13]
  TGI: > 100 µM
[57]
  TGI: > 100 µM
[14]
  TGI: > 100 µM
[15]
  TGI: > 100 µM
[16]
  TGI: > 100 µM
[17]
  TGI: > 100 µM
[58]
  TGI: > 100 µM
[59]
  TGI: > 100 µM
[19]
  TGI: > 100 µM
[21]
  TGI: > 100 µM
[23]
  TGI: > 100 µM
[24]
  TGI: > 100 µM
[25]
  TGI: > 100 µM
[26]
  TGI: > 100 µM
[27]
  TGI: > 100 µM
[60]
  TGI: > 100 µM
[28]
  TGI: > 100 µM
[29]
  TGI: > 100 µM
[31]
  TGI: > 100 µM
[32]
  TGI: > 100 µM
[61]
  TGI: > 100 µM
[33]
  TGI: 76.7 µM
[34]
  TGI: > 100 µM
[35]
  TGI: > 100 µM
[36]
  TGI: > 100 µM
[37]
  TGI: > 100 µM
[38]
  TGI: > 100 µM
[62]
  TGI: > 100 µM
[39]
  TGI: > 100 µM
[63]
  TGI: > 100 µM
[40]
  TGI: > 100 µM
[41]
  TGI: > 100 µM
[43]
  TGI: > 100 µM
[44]
  TGI: > 100 µM
[45]
  TGI: > 100 µM
[64]
  TGI: > 100 µM
[48]
  TGI: > 100 µM
[65]
  TGI: > 100 µM
[49]
  TGI: > 100 µM
[51]
  TGI: > 100 µM
[66]
  TGI: 90.7 µM
[52]
  TGI: > 100 µM
[53]
  TGI: > 100 µM
[67]
  TGI: > 100 µM
[54]
  TGI: > 100 µM

## CCOC(=O)c1ccc2c(=O)n3c(C(=O)OCC)ccc3c(=O)n12
[1]
  TGI: > 100 µM
[2]
  TGI: > 100 µM
[3]
  TGI: > 100 µM
[5]
  TGI: > 100 µM
[6]
  TGI: > 100 µM
[7]
  TGI: > 100 µM
[8]
  TGI: > 100 µM
[9]
  TGI: > 100 µM
[10]
  TGI: > 100 µM
[11]
  TGI: > 100 µM
[56]
  TGI: > 100 µM
[12]
  TGI: > 100 µM
[13]
  TGI: > 100 µM
[57]
  TGI: > 100 µM
[14]
  TGI: > 100 µM
[15]
  TGI: > 100 µM
[16]
  TGI: > 100 µM
[17]
  TGI: > 100 µM
[58]
  TGI: > 100 µM
[59]
  TGI: > 100 µM
[19]
  TGI: > 100 µM
[21]
  TGI: > 100 µM
[23]
  TGI: > 100 µM
[25]
  TGI: > 100 µM
[26]
  TGI: > 100 µM
[27]
  TGI: > 100 µM
[60]
  TGI: > 100 µM
[28]
  TGI: > 100 µM
[29]
  TGI: > 100 µM
[31]
  TGI: > 100 µM
[32]
  TGI: > 100 µM
[61]
  TGI: > 100 µM
[33]
  TGI: > 100 µM
[34]
  TGI: > 100 µM
[36]
  TGI: > 100 µM
[37]
  TGI: > 100 µM
[38]
  TGI: > 100 µM
[62]
  TGI: > 100 µM
[39]
  TGI: > 100 µM
[63]
  TGI: > 100 µM
[40]
  TGI: > 100 µM
[41]
  TGI: > 100 µM
[42]
  TGI: > 100 µM
[43]
  TGI: > 100 µM
[44]
  TGI: > 100 µM
[45]
  TGI: > 100 µM
[64]
  TGI: > 100 µM
[46]
  TGI: > 100 µM
[48]
  TGI: > 100 µM
[65]
  TGI: > 100 µM
[49]
  TGI: > 100 µM
[51]
  TGI: > 100 µM
[66]
  TGI: > 100 µM
[52]
  TGI: > 100 µM
[53]
  TGI: > 100 µM
[67]
  TGI: > 100 µM
[54]
  TGI: > 100 µM

## COc1ccc(CC(C#N)c2cc(OC)c(OC)c(OC)c2)cc1 (configuration not stated)
[1]
  TGI: > 100 µM
[2]
  TGI: 0.113 µM
[3]
  TGI: > 100 µM
[4]
  TGI: > 100 µM
[5]
  TGI: 0.0783 µM
[6]
  TGI: > 100 µM
[7]
  TGI: > 100 µM
[8]
  TGI: 4.95 µM
[9]
  TGI: > 100 µM
[10]
  TGI: 0.125 µM
[11]
  TGI: 21 µM
[56]
  TGI: 3.29 µM
[12]
  TGI: > 100 µM
[13]
  TGI: 13 µM
[14]
  TGI: 3.88 µM
[15]
  TGI: > 100 µM
[16]
  TGI: > 100 µM
[17]
  TGI: 1.96 µM
[18]
  TGI: 28.6 µM
[58]
  TGI: > 71.4 µM
[19]
  TGI: > 100 µM
[20]
  TGI: > 100 µM
[21]
  TGI: 6.32 µM
[23]
  TGI: > 100 µM
[24]
  TGI: 16.7 µM
[25]
  TGI: > 96.9 µM
[26]
  TGI: > 81 µM
[27]
  TGI: 2.15 µM
[60]
  TGI: > 100 µM
[29]
  TGI: > 100 µM
[30]
  TGI: > 100 µM
[31]
  TGI: 14.3 µM
[32]
  TGI: > 100 µM
[33]
  TGI: 46.6 µM
[34]
  TGI: 5.72 µM
[35]
  TGI: 0.231 µM
[36]
  TGI: > 100 µM
[37]
  TGI: > 100 µM
[62]
  TGI: > 100 µM
[39]
  TGI: > 100 µM
[63]
  TGI: 0.135 µM
[42]
  TGI: > 91.6 µM
[43]
  TGI: > 79.9 µM
[44]
  TGI: 2.7 µM
[45]
  TGI: 11 µM
[64]
  TGI: 1.82 µM
[46]
  TGI: > 47.4 µM
[47]
  TGI: > 100 µM
[48]
  TGI: > 100 µM
[65]
  TGI: > 100 µM
[49]
  TGI: > 100 µM
[50]
  TGI: 0.405 µM
[51]
  TGI: 0.133 µM
[66]
  TGI: > 100 µM
[52]
  TGI: > 100 µM
[53]
  TGI: > 100 µM
[67]
  TGI: > 100 µM
[54]
  TGI: > 100 µM
[55]
  TGI: 0.195 µM
